Assay results published in publication PMC6687188, “Novel lactate dehydrogenase inhibitors with in vivo efficacy against Cryptosporidium parvum” (PLoS Pathogens, 2019).

biological target: recombinant CpLDH protein (Cryptosporidium parvum, UniProt Q9GT92, F198L/K295E/R251K); settings: not given

Compound	MEAN CpLDH INHIBITION (%)
CO[C@H]1C[C@H](O[C@H]2CC[C@]3(C=O)[C@H]4CC[C@]5(C)[C@@H](C6=CC(=O)OC6)CC[C@]5(O)[C@@H]4CC[C@]3(O)C2)O[C@H](C)[C@H]1O[C@@H]1O[C@H](CO[C@@H]2O[C@H](CO)[C@@H](O)[C@H](O)[C@H]2O)[C@@H](O)[C@H](O)[C@H]1O [NSC7530]	-3.24
CC1(C)[C@@H]2CC[C@@]1(CS(=O)(=O)O)C(=O)C2.CN1[C@@H](c2ccccc2)CC(=NO)C[C@H]1c1ccccc1 [NSC363744]	-9.54
Cc1ccc(S(=O)(=O)[O-])cc1.Cc1ccc(S(=O)(=O)[O-])cc1.Cn1c(-c2ccc(/C=C/C=N/NC(=O)c3ccc(C(=O)N/N=C/C=C/c4ccc(-c5c[n+]6ccccc6n5C)cc4)cc3)cc2)c[n+]2ccccc12 [NSC603169]	-164.45
CC12CC(Br)(Br)C(=O)C3C1CCCC32 [NSC624358]	-23.30
COC(=O)/C(=N\NC(=O)c1ccccc1O)C(C#N)c1ccccc1 (centres unmarked) [NSC635337]	-28.29
Nc1nc(SCc2ccccc2Cl)c2[nH]cnc2n1 [NSC36826]	-1.63
Nc1ccccc1C(=O)NC(=O)Nc1ccc(Oc2ncc(Br)cn2)c(Cl)c1 [NSC639828]	-42.32
O=C(CC(O)(C(F)(F)F)C(F)(F)Cl)CC(O)(C(F)(F)F)C(F)(F)Cl (centres unmarked) [NSC659174]	-13.23
C=C1CC(Cn2cc(Br)c(=O)[nH]c2=O)(c2ccc(-c3ccccc3)cc2)OC1=O (centres unmarked) [NSC668260]	-9.25
CCOC(=O)/C(=C/c1ccc(N(C)C)cc1)N(CC)CC [NSC643774]	-24.42
CCCCCC(/C=C/[C@@H]1CC(=O)C[C@H]1O[Si](C)(C)C(C)(C)C)OCOCCOC (some centres unmarked) [NSC689228]	-5.60
Cc1ccc(NC(=O)c2cc3ccccc3c(N=Nc3ccccc3O)c2O)c(C)c1 [NSC374898]	-39.33
O=C(N=Nc1c(O)[nH]c2ccccc12)c1ccccc1O [NSC635404]	-38.57
C/C(=N\Nc1nc2ccccc2s1)c1ccncn1 [NSC693632]	0.06
Cl.Nc1ccc2cc3ccc(N)cc3nc2c1 [NSC605756]	-35.77
O=C1NC(=S)NC(=O)C1C(=O)Nc1ccccc1 [NSC336628]	-66.49
Oc1ccc(/C=N/NC(=S)Nc2cccnc2)nc1 [NSC185065]	-8.17
O=C(c1ccccc1)C(c1ccccc1)C1(O)C(=O)Nc2c(Cl)cc(Cl)cc21 (centres unmarked) [NSC635312]	-41.63
O=C(NC(=O)c1c(Cl)nc2sccn12)Nc1ccc(Cl)cc1 [NSC633209]	-19.92
CSCC(CO)NC(=O)/C=C/c1c(C)[nH]c(=O)[nH]c1=O (centres unmarked) [NSC233872]	-35.08
CC(=O)/C(C)=N/NC(=O)c1ccccc1O [NSC635441]	-52.88
Cc1cc(Cl)cc2c1NC(=O)C2(O)C(C(=O)c1ccccc1)c1ccccc1 (centres unmarked) [NSC635435]	-63.48
COc1ccc(-c2cc(=O)c3c(OC)c(OC)c(OC)cc3o2)cc1 [NSC53908]	-32.76
CCOC(=O)CCc1c(C)c2c(O)cc(O)cc2oc1=O [NSC622616]	-39.56

Compound	MEAN CpLDH INHIBITION (%)
CC1(O)C=CC(=O)C=C1 [NSC295156]	-1.00
COc1cc2c(c(OC)c1OC)-c1ccc(OC)c(=O)cc1[C@@H](NC(=O)c1ccccc1)CC2 [NSC33410]	-43.24
S=C=NCc1ccccc1 [NSC118976]	-18.30
COc1cc2oc3cc(=O)cc4oc(-c5ccccc5)cc(c2c2c1CCC(c1ccccc1)O2)c43 (centres unmarked) [NSC376248]	-15.03
CN1CC[C@]23c4ccccc4N[C@H]1[C@]21CCN(C)[C@H]3Nc2ccccc21 [NSC99016]	-25.29
CC(C)(C)NCCC(O)c1cc(C(F)(F)F)nc2c(C(F)(F)F)cccc12.O=P(O)(O)O (centres unmarked) [NSC305819]	-15.30
CC[C@@]12CCCN3CC[C@]4(c5cccc(OC)c5N(C(C)=O)[C@@H]4CC1)[C@H]32 [NSC61811]	-26.07
Cc1ccc(S(=O)(=O)SC/C=C/CSS(=O)(=O)c2ccc(C)cc2)cc1 [NSC624158]	-8.09
COc1ccc(C[C@@H]2NC[C@@H](O)[C@@H]2OC(C)=O)cc1.Cl [NSC147340]	-13.68
O=C1C=C(Nc2cccnc2)c2ccccc2C1=O [NSC637729]	-66.55
CN(C)c1ccc2c(SCC(=O)OCC(=O)[C@@]3(O)CC[C@H]4[C@@H]5CCC6=CC(=O)C=C[C@]6(C)[C@H]5C(=O)C[C@@]43C)c3ccc(N(C)C)cc3nc2c1 [NSC337851]	-16.37
CC(C)N.CC(C)N.[Cl-].[Cl-].[OH-].[OH-].[Pt] [NSC256927]	-46.96
CC1=CC23C(COC(=O)C24CO4)C(C(=O)O)=CC3C1C.NCc1ccccc1 (centres unmarked) [NSC136037]	-0.26
O=C1OC(c2ccccc2)=N/C1=C\c1ccc(N(CCCl)CCCl)cc1 [NSC104117]	-18.47
CC(=O)OCCN1c2ccccc2Sc2cnccc21 [NSC168221]	-24.94
O=[N+]([O-])c1ccc2c(c1)/C(=N/N=C1c3ccccc3Cc3ccccc31)c1cc([N+](=O)[O-])cc([N+](=O)[O-])c1-2 [NSC658139]	-4.51
CC1=C(O)c2ccccc2C(=O)C1=O [NSC11897]	-2.25
N#Cc1cn([C@@H]2O[C@H](CO)[C@@H](O)[C@H]2O)c2ncnc(N)c12 [NSC63701]	-0.31
COc1cc(C(O)CCBr)c(OC)cc1C (centres unmarked) [NSC611750]	-11.25
c1coc(CNc2ncnc3[nH]ncc23)c1 [NSC1620]	-4.87
COc1cc(C(C)c2cc3c(cc2OCCO)OCO3)cc(OC)c1OC (centres unmarked) [NSC352876]	-6.93
O=C1NC(c2cccc3ccccc23)Nc2ccccc21 (centres unmarked) [NSC145669]	0.07
CC1=C[C@H]2O[C@@H]3[C@H](O)[C@@H](O)[C@](C)([C@@]2(CO)CC1)[C@]31CO1 [NSC269142]	-41.10
O=c1ncccn1C1OC(CO)C(O)C1F (centres unmarked) [NSC625355]	-50.28

Compound	MEAN CpLDH INHIBITION (%)
O=C(C[n+]1ccc2ccccc2c1)c1ccc2ccc3ccccc3c2c1 [NSC35489]	-39.94
[O-][Cl+3]([O-])([O-])[O-].c1ccc(-c2csc3c4ccccc4c4ccccc4[n+]23)cc1 [NSC98904]	-42.18
COc1cc2c3c(n(C)c(=O)c2cc1OC)-c1cc2c(cc1C3=O)OCO2 [NSC314622]	-4.47
COc1ccc(C2C(C)C(=O)C(C)C(c3ccc(OC)cc3)N2N=O)cc1 (centres unmarked) [NSC626734]	-0.09
CC1=NC(C(C)C)C(=O)O1 (centres unmarked) [NSC635968]	-7.14
COC(=O)C(=O)C(C(=O)Nc1cccc(C)c1C)C1Sc2ccccc2NC1=O (centres unmarked) [NSC635833]	-26.59
CC1=NN(C(=O)c2ccncc2)C(=O)C1N=Nc1ccc(F)cc1 (centres unmarked) [NSC621094]	-33.52
Cn1cnc([N+](=O)[O-])c1Sc1nnc(-c2cccnc2)n1C [NSC631160]	-15.11
BrCCC[P+](c1ccccc1)(c1ccccc1)c1ccccc1.[Br-] [NSC84074]	-40.93
O=[N+]([O-])c1ccc(-c2cn(-c3ccc(Cl)cc3)cn2)cc1 [NSC610744]	-19.53
CC(=O)OCc1c2ccccc2c(C)c2c1cc(F)c1ccccc12 [NSC623135]	-28.47
COc1ccc2c(c1)C=C([N+](=O)[O-])C(C1OC(C)(C)OC1C1COC(C)(C)O1)O2 (centres unmarked) [NSC618261]	-65.69
O=[N+]([O-])c1cc(-c2nc(=S)[nH][nH]2)ccc1O [NSC635563]	-59.68
C=C(Cl)C(Cl)(CBr)CCC(Br)C(C)(C)Cl (centres unmarked) [NSC662825]	-7.35
COc1ccc(NC2=NCCO2)c2c1CCCC2 [NSC663996]	-51.63
CCCCCCCCCCCCC(O)C(=O)O (centres unmarked) [NSC18938]	-83.85
Cc1ccc(/C=C2\CNC/C(=C\c3ccc(C)cc3)C2=O)cc1.Cl [NSC632839]	-15.78
N#CC(c1ccccc1)N(CCCCCCN(C(=O)c1ccccc1)C(C#N)c1ccccc1)C(=O)c1ccccc1 (centres unmarked) [NSC681744]	-15.26
Cc1ccc(S(=O)(=O)NC(=O)NC2=NC(C)(C)N(c3ccc(Cl)c(Cl)c3)C(N)=N2)cc1 [NSC603624]	-12.73
COc1ccc(C2C=C(c3ccc4c(c3)OCO4)Oc3c2c(=O)oc2ccccc32)cc1OC (centres unmarked) [NSC211489]	-11.02
COc1cccc2c1cc([N+](=O)[O-])c1c(C(=O)O)cc3c(c12)OCO3 [NSC11926]	-19.30
Cc1nc(C(N)=S)sc1C(=O)CC(=O)C(=O)Nc1c(C(C)C)cccc1C(C)C [NSC642048]	-4.29

same assay, conditions: 20 μM compound; 10 mM pyruvate, 1 mM NADH; values below 0 = augmenters

Compound	MEAN CpLDH INHIBITION (%)
Cc1ccc(S(=O)(=O)c2ccc([N+](=O)[O-])o2)cc1 [NSC697923]	-17.27
